Patent publication EP3436445B1, “HISTONE DEMETHYLASE INHIBITORS” (Celgene Quanticel Research, Inc., priority 2016, dated 2017)

Assays:
JMJD2C = biological target: T1, JMJD2C (Homo sapiens, UniProt Q9H3R0); assay: JMJD2C in vitro enzyme inhibition assay (TR-FRET); format: biochemical; settings: Table 5; 0.3 nM JMJD2C, H3K9me3-biotin labeled peptide
T1 construct: purchased BPS Bioscience 50105
T1 sequence (Q9H3R0 2-372): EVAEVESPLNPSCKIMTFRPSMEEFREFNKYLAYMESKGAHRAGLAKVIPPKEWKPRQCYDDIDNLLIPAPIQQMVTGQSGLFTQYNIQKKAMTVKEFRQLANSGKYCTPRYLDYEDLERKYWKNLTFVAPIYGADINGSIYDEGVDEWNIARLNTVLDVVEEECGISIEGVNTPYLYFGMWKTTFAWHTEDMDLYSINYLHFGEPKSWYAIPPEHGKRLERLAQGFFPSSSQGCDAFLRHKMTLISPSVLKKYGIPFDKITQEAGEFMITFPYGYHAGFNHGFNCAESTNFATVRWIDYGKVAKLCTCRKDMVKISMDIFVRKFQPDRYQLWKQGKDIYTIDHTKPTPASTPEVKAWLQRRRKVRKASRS
Excerpt: (§1) This assay determines the ability of a test compound to inhibit Jarid1B, JMJD2C and JMJD3 demethylase activity. Baculovirus expressed Jarid1B (GenBank Accession #NM-006618, AA 2-751) was purchased from BPS Bioscience (Cat #50121) or custom made by MolecularThroughput. Baculovirus expressed JMJD2C (GenBank Accession #BC143571, AA 2-372) was purchased from BPS Bioscience (Cat#50105). Baculovirus expressed JMJD3 (GenBank Accession #NM-001080424, AA1043-end) was purchased from BPS Bioscience (Cat#50115).
The ability of test compounds to inhibit the activity of JMJD2C was determined in 384-well plate format under the following reaction conditions: 0.3 nM JMJD2C, 300 nM H3K9me3-biotin labeled peptide (Anaspec cat #64360), 2 µM alpha-ketoglutaric acid in assay buffer of 50 mM HEPES, pH7.3, 0.005% Brij35, 0.5 mM TCEP, 0.2 mg/ml BSA, 50 µM sodium L-ascorbate, and 2 µM ammonium iron(II) sulfate. Reaction product was determined quantitatively by TR-FRET after the addition of detection reagent Phycolink Streptavidin-allophycocyanin (Prozyme) and Europium-anti-di-methylated histone H3 lysine 9 (H3K9me2) antibody (PerkinElmer) in the presence of 5 mM EDTA in LANCE detection buffer (PerkinElmer) at a final concentration of 50 nM and 1 nM, respectively.
The assay reaction was initiated by the following: 2 µl of the mixture of 900 nM H3K9me3-biotin labeled peptide and 6 µM alpha-ketoglutaric acid with 2 µl of 11-point serial diluted inhibitor in 3% DMSO were added to each well of the plate, followed by the addition of 2 µl of 0.9 nM JMJD2C to initiate the reaction. The reaction mixture was incubated at room temperature for 30 minutes, and terminated by the addition of 6 µl of 5 mM EDTA in LANCE detection buffer containing 100 nM Phycolink Streptavidin-allophycocyanin and 2 nM Europium-anti-H3K9me2 antibody. Plates were read by EnVisionMultilabel Reader in TR-FRET mode (excitation at 320 nm, emission at 615 nm and 665 nm) after 1 hour incubation at room temperature. A ratio was calculated (665/615) for each well and fitted to determine inhibition constant (IC50).

JMJD3 = biological target: T2, JMJD3 (Homo sapiens, UniProt O15054); assay: JMJD3 in vitro enzyme inhibition assay (AlphaScreen); format: biochemical; settings: Table 5; 1 nM JMJD3, H3K27me3-biotin labeled peptide
T2 construct: purchased BPS Bioscience 50115
T2 sequence (O15054 1043-1682 isoform O15054-1): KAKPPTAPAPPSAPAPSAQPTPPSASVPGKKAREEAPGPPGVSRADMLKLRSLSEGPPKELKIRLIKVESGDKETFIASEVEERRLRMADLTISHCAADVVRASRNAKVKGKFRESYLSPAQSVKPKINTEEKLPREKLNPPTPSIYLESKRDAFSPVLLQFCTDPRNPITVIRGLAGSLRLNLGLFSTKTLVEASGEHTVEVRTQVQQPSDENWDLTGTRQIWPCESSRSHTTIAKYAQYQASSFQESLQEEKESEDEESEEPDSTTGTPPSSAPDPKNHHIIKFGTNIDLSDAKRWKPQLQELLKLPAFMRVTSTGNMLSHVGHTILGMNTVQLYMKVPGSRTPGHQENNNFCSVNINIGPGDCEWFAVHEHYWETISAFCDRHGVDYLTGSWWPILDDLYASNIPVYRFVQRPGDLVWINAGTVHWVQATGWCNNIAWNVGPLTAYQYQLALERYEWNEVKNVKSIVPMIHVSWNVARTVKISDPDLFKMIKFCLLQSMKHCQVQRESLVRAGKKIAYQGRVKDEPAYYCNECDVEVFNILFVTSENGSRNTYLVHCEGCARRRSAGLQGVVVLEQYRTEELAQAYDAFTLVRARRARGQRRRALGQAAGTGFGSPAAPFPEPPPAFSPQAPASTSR
Excerpt: as §1
The ability of test compounds to inhibit the activity of JMJD3 was determined in 384-well plate format under the following reaction conditions: 1 nM JMJD3, 250 nM H3K27me3-biotin labeled peptide (Anaspec cat # 64367), 1 µM alpha-ketoglutaric acid in assay buffer of 50 mM HEPES, pH7.3, 0.005% Brij35, 0.5 mM TCEP, 0.2 mg/ml BSA, 50 µM sodium L-ascorbate, 5 µM ammonium iron(II) sulfate. Reaction product is determined quantitatively by AlphaScreen detection after the addition of detection reagents anti-H3K27me1 antibody, 5 µg/ml AlphaScreen® Streptavidin-coated Donor beads, and 5 µg/ml AlphaScreen® Protein A Acceptor beads in 50 mM HEPES, pH7.3, 10 mM NaCl, 0.005% Brij35, 10 mM EDTA, 2 mg/ml BSA.
The assay reaction was initiated by the following: 3 µl of the mixture of 750 nM H3K27me3-biotin labeled peptide and 3 µM alpha-ketoglutaric acid with 3 µl of 11-point serial diluted inhibitor in 3% DMSO are added to each well of 384 well Proxiplate (Perkin Elmer), followed by the addition of 3 µl of 3 nM JMJD3 to initiate the reaction. The reaction mixture is incubated at room temperature for 20 minutes, and terminated by the addition of 3 µl of appropriate dilution of anti H3K27me1 antibody in 50 mM HEPES, pH7.3, 10 mM NaCl, 0.005% Brij35, 10 mM EDTA, 2 mg/ml BSA. Plates will then incubated at room temperature for 1 hour, followed by addition of 3 µl of 25 µg/ml AlphaScreen® Streptavidin-coated Donor beads and AlphaScreen® Protein A Acceptor beads in 50 mM HEPES, pH7.3, 10 mM NaCl, 0.005% Brij35, 10 mM EDTA, 2 mg/ml BSA. Plates will then be read by EnVision Multilabel Reader in AlphaScreen mode after minimum 2 hour incubation at room temperature. The AlphaScreen signal for each well is used to determine inhibition constant (IC50).

Row | SMILES | IC50 (JMJD2C) [µM] | IC50 (JMJD3) [µM]
1 | Cc1ccc(Cn2cnc(-c3cc(-c4nn[nH]c4C(F)(F)F)ccn3)c2)cc1 [Example 65, 2-{1-[(4-methylphenyl)methyl]-1H-imidazol-4-yl}-4-[5-(trifluoromethyl)-1H-1,2,3-triazol-4-yl]pyridine] | > 10 | > 10
2 | Fc1cccc(CCn2cnc(-c3cc(-c4nn[nH]c4C(F)(F)F)ccn3)c2)c1F [Example 79, 2-{1-[2-(2,3-difluorophenyl)ethyl]-1H-imidazol-4-yl}-4-[5-(trifluoromethyl)-1H-1,2,3-triazol-4-yl]pyridine] | > 10 | > 10
3 | FC(F)(F)c1[nH]nnc1-c1ccnc(-c2cn(CC3CCOc4ccccc43)cn2)c1 (stereo not shown) [Example 98, 2-{1-[(3,4-dihydro-2H-1-benzopyran-4-yl)methyl]-1H-imidazol-4-yl}-4-[5-(trifluoromethyl)-1H-1,2,3-triazol-4-yl]pyridine] | > 10 | > 10
4 | Cc1ccc(Cn2cnc(-c3cc(-c4nn[nH]c4C(F)(F)F)ccn3)c2)c(F)c1 [Example 71, 2-{1-[(2-fluoro-4-methylphenyl)methyl]-1H-imidazol-4-yl}-4-[5-(trifluoromethyl)-1H-1,2,3-triazol-4-yl]pyridine] | > 10 | > 10
5 | FC(F)(F)COc1ccccc1Cn1cnc(-c2cc(-c3nn[nH]c3C(F)(F)F)ccn2)c1 [Example 76, 2-(1-{[2-(2,2,2-trifluoroethoxy)phenyl]methyl}-1H-imidazol-4-yl)-4-[5-(trifluoromethyl)-1H-1,2,3-triazol-4-yl]pyridine] | > 10 | > 10
6 | CCc1ccc(CCn2cnc(-c3cc(-c4nn[nH]c4C(F)(F)F)ccn3)c2)cc1 [Example 95, 2-{1-[2-(4-ethylphenyl)ethyl]-1H-imidazol-4-yl}-4-[5-(trifluoromethyl)-1H-1,2,3-triazol-4-yl]pyridine] | > 10 | > 10
7 | Cc1cc(F)ccc1Cn1cnc(-c2cc(-c3nn[nH]c3C(F)(F)F)ccn2)c1 [Example 70, 2-{1-[(4-fluoro-2-methylphenyl)methyl]-1H-imidazol-4-yl}-4-[5-(trifluoromethyl)-1H-1,2,3-triazol-4-yl]pyridine] | > 10 | > 10
8 | COc1cccc2c1CCCC2Cn1cnc(-c2cc(-c3nn[nH]c3C(F)(F)F)ccn2)c1 (stereo not shown) [Example 104, 2-{1-[(5-methoxy-1,2,3,4-tetrahydronaphthalen-1-yl)methyl]-1H-imidazol-4-yl}-4-[5-(trifluoromethyl)-1H-1,2,3-triazol-4-yl]pyridine] | > 10 | > 10
9 | Fc1ccc2c(c1)C(n1cnc(-c3cc(-c4nn[nH]c4C(F)(F)F)ccn3)c1)CC2 (stereo not shown) [Example 85, 2-[1-(6-fluoro-2,3-dihydro-1H-inden-1-yl)-1H-imidazol-4-yl]-4-[5-(trifluoromethyl)-1H-1,2,3-triazol-4-yl]pyridine] | 1 to 10 | –
10 | Cn1cnc(-c2cc(-c3nn[nH]c3C(F)(F)F)ccn2)c1-c1ccc(F)cc1 [Example 97, 2-[5-(4-fluorophenyl)-1-methyl-1H-imidazol-4-yl]-4-[5-(trifluoromethyl)-1H-1,2,3-triazol-4-yl]pyridine] | > 10 | > 10
11 | FC(F)(F)c1[nH]nnc1-c1ccnc(-c2cn(CC3CCc4ccccc43)cn2)c1 (stereo not shown) [Example 83, 2-{1-[(2,3-dihydro-1H-inden-1-yl)methyl]-1H-imidazol-4-yl}-4-[5-(trifluoromethyl)-1H-1,2,3-triazol-4-yl]pyridine] | 1 to 10 | –
12 | FC(F)(F)c1ccccc1CCn1cnc(-c2cc(-c3nn[nH]c3C(F)(F)F)ccn2)c1 [Example 60, 4-[5-(trifluoromethyl)-1H-1,2,3-triazol-4-yl]-2-(1-{2-[2-(trifluoromethyl)phenyl]ethyl}-1H-imidazol-4-yl)pyridine] | 1 to 10 | –
13 | Fc1ccccc1CCn1cnc(-c2cc(-c3nn[nH]c3C(F)(F)F)ccn2)c1 [Example 84, 2-{1-[2-(2-fluorophenyl)ethyl]-1H-imidazol-4-yl}-4-[5-(trifluoromethyl)-1H-1,2,3-triazol-4-yl]pyridine] | > 10 | –
